One data set concerns the target T1, Angiotensin AT1 (h) (Homo sapiens, UniProt P30556).
T1 construct: expressed in transfected cells; host or cells: HEK-293 cells
T1 sequence (P30556 1-359): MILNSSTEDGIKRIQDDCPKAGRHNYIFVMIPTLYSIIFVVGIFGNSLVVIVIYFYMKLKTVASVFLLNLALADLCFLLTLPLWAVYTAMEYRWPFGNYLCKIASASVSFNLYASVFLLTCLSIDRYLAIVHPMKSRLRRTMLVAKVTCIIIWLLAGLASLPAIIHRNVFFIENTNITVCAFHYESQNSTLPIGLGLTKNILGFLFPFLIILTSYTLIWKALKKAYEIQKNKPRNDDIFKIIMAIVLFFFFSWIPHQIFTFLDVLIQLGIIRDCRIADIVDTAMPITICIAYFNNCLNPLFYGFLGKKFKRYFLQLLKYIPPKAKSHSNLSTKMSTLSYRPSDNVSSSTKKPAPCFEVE
Kind of data set: Binding AT1 (h) (aa). To be noted: read-out: % Inhibition of Control Specific Binding @ 10 μM. On the procedure: (§1) Radioligand binding assay methods utilized to measure the activity of compounds of the invention will be familiar to those skilled in the art. In each assay case, the assay components such as, for example, the cell-type, ligand, reference compound and the like, will be familiar to practitioners of such an assay.
(§2) Analysis and Expression of Results: Compounds of the invention were tested in the biochemical assays and percent inhibition of specific binding was determined. The specific ligand binding to the receptors is defined as the difference between the total binding and the nonspecific binding determined in the presence of an excess of unlabelled ligand. The results are expressed as a percent inhibition of control specific binding (100−((measured specific binding/control specific binding)×100)) obtained in the presence of test compounds.

The test system of another data set is PDE5 (h) (ns). Kind of data set: Enzyme assay PDE5 (h) (ns). The format is biochemical, human. The source says: (§3) The enzyme assays provided below will be familiar to those skilled in the art.
(§4) Analysis and Expression of Results: The results are expressed as a percent of control specific activity ((measured specific activity/control specific activity)×100) obtained in the presence of the test compounds.

A further data set concerns the target T2, dopamine transporter (h) (Homo sapiens, UniProt Q01959).
T2 construct: expressed in transfected cells; host or cells: CHO cells
Kind of data set: Binding dopamine transporter (h) (aa). Particulars: read-out: % Inhibition of Control Specific Binding @ 10 μM. Here is the method: as §1, §2

The subject of a further data set is I2. Kind of data set: Binding I2 (aa). Also on record: species or system rat. On the procedure:
as §1, §2

The subject of a further data set is σ (ns). Kind of data set: Binding σ (ns) (ag). Also on record: species or system rat. On the procedure:
as §1, §2

In another data set the target is T3, hERG (Homo sapiens, UniProt Q12809).
T3 construct: expressed in transfected cells; host or cells: HEK-293 cells
T3 sequence (Q12809 whole entry): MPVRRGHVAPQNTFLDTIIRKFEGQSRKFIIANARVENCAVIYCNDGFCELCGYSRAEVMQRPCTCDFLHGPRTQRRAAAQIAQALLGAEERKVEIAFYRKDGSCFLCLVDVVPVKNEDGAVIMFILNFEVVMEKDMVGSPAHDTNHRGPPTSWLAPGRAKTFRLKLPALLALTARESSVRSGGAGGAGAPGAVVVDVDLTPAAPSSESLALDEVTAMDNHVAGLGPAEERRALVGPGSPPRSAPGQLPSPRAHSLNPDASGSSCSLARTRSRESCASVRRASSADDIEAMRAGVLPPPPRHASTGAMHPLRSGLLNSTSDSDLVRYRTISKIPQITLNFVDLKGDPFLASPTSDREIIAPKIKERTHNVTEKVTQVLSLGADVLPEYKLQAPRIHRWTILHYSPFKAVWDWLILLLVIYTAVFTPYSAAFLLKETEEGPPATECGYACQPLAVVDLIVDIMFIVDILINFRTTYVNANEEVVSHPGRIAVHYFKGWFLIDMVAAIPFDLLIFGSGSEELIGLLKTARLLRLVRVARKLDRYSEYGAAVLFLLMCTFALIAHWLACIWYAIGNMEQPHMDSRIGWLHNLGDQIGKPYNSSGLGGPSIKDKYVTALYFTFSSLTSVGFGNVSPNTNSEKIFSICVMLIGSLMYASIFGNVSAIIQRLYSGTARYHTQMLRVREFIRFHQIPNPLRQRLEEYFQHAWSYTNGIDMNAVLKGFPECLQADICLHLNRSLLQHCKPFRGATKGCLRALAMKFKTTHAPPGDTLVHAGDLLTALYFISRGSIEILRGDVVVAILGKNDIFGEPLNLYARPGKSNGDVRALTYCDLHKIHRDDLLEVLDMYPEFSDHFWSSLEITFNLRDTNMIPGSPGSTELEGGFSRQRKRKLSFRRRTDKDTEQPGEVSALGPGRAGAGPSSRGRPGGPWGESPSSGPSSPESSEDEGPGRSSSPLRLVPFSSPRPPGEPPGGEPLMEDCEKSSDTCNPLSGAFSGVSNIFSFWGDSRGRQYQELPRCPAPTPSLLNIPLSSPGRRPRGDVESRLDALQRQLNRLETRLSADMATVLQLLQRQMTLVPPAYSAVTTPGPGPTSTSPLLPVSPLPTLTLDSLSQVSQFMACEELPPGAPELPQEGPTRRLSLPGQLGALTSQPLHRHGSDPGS
Kind of data set: Binding hERG (membrane preparation) (aa). To be noted: read-out: % Inhibition of Control Specific Binding @ 10 μM. Here is the method: as §1, §2

The subject of the next data set is KATP channel. Kind of data set: Binding KATP channel (aa). On the set-up: species or system rat. On the procedure:
as §1, §2

For data set [1], the target named is T4, Cholecystokinin CCK2 (CCKB) (h) (Homo sapiens, UniProt P32239).
T4 construct: expressed in transfected cells; host or cells: CHO cells
T4 sequence (P32239 1-447): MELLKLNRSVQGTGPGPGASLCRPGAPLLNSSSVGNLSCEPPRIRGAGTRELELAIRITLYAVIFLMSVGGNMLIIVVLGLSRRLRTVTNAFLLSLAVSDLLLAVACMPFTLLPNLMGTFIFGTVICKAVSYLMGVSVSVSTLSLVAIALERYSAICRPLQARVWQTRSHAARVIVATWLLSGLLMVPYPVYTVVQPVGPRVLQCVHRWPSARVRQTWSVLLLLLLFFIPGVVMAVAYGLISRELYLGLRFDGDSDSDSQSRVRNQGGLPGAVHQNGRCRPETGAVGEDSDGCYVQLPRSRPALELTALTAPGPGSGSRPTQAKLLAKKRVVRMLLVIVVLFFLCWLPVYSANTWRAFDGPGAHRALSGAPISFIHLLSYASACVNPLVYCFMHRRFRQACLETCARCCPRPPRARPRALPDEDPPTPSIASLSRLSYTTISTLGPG
Kind of data set: Binding CCK2 (CCKB) (h) (ag). To be noted: read-out: % Inhibition of Control Specific Binding @ 10 μM. On the procedure: as §1, §2

A further data set addresses T5, Bradykinin B2 (h) (Homo sapiens, UniProt P30411).
T5 construct: expressed in transfected cells; host or cells: CHO cells
T5 sequence (P30411 1-391): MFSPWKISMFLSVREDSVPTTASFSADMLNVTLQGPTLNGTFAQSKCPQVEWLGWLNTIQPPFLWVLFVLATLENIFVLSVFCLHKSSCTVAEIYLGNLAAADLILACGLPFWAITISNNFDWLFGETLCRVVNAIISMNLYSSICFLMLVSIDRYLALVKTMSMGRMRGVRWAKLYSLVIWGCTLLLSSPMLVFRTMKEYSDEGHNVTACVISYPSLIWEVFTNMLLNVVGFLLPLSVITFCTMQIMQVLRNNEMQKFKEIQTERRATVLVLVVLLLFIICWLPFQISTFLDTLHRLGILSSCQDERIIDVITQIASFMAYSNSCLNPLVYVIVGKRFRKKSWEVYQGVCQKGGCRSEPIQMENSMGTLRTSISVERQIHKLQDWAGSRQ
Kind of data set: Binding B2 (h) (ag). To be noted: read-out: % Inhibition of Control Specific Binding @ 10 μM. Here is the method: as §1, §2

The target in another data set is T6, Neurokinin NK2 (h) (Homo sapiens, UniProt P21452).
T6 construct: expressed in transfected cells; host or cells: CHO cells
T6 sequence (P21452 1-398): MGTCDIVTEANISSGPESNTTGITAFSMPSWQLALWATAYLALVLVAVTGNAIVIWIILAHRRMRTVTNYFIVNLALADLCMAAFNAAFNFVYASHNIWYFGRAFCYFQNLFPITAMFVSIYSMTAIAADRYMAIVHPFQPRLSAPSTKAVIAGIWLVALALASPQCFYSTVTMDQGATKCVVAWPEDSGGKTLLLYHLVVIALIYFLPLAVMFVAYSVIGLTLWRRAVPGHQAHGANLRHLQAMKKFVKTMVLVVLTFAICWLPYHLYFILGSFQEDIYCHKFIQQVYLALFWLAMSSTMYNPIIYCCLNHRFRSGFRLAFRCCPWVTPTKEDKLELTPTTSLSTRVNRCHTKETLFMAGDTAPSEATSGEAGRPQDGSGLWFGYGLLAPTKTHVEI
Kind of data set: Binding NK2 (h) (ag). Particulars: read-out: % Inhibition of Control Specific Binding @ 10 μM. Here is the method:
as §1, §2

In another data set the target is T7, PDE4D (h) (Homo sapiens, UniProt Q08499).
T7 construct: host or cells: Sf9 cells
T7 sequence (Q08499 whole entry): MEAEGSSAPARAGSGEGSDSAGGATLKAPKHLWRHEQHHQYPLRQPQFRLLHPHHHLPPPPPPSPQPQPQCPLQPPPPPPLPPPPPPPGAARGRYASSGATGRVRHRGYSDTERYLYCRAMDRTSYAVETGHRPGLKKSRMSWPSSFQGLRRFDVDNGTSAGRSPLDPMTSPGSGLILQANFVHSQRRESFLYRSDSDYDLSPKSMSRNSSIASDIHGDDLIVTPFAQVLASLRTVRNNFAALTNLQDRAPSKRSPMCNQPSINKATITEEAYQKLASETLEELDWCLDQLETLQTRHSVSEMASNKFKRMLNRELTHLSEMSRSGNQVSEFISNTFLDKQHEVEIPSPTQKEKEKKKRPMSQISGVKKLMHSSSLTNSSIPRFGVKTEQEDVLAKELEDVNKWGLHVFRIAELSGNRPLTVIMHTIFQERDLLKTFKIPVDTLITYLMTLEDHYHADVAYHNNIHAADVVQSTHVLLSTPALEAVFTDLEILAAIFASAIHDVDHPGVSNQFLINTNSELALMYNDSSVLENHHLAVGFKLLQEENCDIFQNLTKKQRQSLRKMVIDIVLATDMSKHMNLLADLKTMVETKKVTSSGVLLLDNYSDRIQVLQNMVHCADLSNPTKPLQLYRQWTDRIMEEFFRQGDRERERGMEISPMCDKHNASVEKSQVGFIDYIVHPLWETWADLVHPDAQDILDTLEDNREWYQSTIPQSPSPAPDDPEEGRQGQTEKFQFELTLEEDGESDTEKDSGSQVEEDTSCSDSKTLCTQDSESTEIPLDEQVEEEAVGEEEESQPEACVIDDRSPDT
Kind of data set: Enzyme assay PDE4D (h). In kind it is biochemical. To be noted: read-out: % Inhibition of Control Values @ 10 μM.
Description: as §3, §4

In the next data set the test system is ATPase (Na^+/K^+). Kind of data set: Enzyme assay ATPase (Na+/K+). In kind it is biochemical, porcine.
Description: as §3, §4

A further data set deals with T8, Cannabinoid CB1 (h) (Homo sapiens, UniProt P21554).
T8 construct: expressed in transfected cells; host or cells: CHO cells
T8 sequence (P21554 whole entry): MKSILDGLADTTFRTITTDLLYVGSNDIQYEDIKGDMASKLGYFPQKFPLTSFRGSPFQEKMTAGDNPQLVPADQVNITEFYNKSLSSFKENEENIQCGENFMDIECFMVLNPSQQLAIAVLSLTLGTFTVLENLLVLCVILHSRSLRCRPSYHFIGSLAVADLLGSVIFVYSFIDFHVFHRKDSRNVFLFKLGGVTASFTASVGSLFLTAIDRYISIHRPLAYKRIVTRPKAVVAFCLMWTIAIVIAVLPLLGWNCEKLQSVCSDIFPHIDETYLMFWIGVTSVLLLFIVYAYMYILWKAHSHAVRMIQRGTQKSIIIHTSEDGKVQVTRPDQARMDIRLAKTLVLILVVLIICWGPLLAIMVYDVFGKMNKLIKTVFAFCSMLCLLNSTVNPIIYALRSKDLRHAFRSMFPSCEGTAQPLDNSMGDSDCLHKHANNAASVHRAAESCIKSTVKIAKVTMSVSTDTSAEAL
Kind of data set: Binding CB1 (h) (ag). Particulars: read-out: % Inhibition of Control Specific Binding @ 10 μM. Here is the method: as §1, §2

The next data set concerns the target T9, Somatostatin sst5 (h) (Homo sapiens, UniProt P35346).
T9 construct: expressed in transfected cells; host or cells: CHO cells
Kind of data set: Binding sst5 (h) (ag). To be noted: read-out: % Inhibition of Control Specific Binding @ 10 μM. Here is the method:
as §1, §2

For another data set, the system named is Adrenergic α2 (ns). Kind of data set: Binding α2 (ns) (aa). On the set-up: species or system rat. On the procedure:
as §1, §2

T9 sequence (P35346 whole entry): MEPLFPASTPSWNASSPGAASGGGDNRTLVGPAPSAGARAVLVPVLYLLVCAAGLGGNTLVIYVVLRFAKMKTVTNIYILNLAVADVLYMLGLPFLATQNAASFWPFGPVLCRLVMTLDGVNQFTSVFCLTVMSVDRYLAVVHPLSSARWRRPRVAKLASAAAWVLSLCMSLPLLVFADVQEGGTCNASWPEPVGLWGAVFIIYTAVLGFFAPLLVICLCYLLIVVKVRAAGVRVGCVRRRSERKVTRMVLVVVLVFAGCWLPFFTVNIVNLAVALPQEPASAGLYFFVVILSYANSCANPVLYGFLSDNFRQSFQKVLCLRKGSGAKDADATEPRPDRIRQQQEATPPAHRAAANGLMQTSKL
T2 sequence (Q01959 whole entry): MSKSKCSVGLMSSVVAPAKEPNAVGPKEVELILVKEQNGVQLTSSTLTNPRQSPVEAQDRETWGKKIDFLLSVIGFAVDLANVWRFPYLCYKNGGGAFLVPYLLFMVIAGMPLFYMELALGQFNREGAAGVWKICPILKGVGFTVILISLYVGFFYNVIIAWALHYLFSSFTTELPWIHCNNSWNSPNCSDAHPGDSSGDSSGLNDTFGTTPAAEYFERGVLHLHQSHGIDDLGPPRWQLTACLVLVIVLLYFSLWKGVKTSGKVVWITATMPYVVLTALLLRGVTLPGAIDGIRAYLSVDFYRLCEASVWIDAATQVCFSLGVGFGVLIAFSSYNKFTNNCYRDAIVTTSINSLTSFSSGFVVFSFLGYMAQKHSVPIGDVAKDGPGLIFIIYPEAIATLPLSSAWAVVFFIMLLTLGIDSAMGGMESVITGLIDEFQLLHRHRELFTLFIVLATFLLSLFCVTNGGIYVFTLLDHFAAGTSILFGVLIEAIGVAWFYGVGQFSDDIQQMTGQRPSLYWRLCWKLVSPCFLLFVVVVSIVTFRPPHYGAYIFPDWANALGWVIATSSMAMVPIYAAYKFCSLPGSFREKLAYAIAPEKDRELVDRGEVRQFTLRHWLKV

On to `CC1(C)C(=O)N(c2ccc(C#N)c(C(F)(F)F)c2)C(=S)N1c1ccc(C(=O)O)c(F)c1` [(MI), 4-(3-(4-cyano-3-(trifluoromethyl)phenyl)-5,5-dimethyl-4-oxo-2-thioxoimidazolidin-1-yl)-2-fluorobenzoic acid], for which the inhibition at 10 µM at Angiotensin AT1 (h) was 11%; on dopamine transporter (h), 32%; on hERG it was -39%; in data set [1] it was -10%; on Bradykinin B2 (h) it was 2%; on Neurokinin NK2 (h) it was -6%. For the same molecule, the inhibition at 10 µM was 1% at PDE4D (h), -20% on Cannabinoid CB1 (h) and -25% at Somatostatin sst5 (h). For the same molecule, the “% Inhibition of Control Values @ 10 μM” value with PDE5 (h) (ns) and in the data set on ATPase (Na^+/K^+) was 4% each time. Moreover, the “% Inhibition of Control Specific Binding @ 10 μM” value in the data set on I2 is given as 28%; in the data set with σ (ns) it was 20%; in the data set on KATP channel it was 17%; in the data set with Adrenergic α2 (ns) it was −7%.

In the case of `CC1(C)C(=O)N(c2ccc(C#N)c(C(F)(F)F)c2)C(=S)N1c1ccc(C(N)=O)c(F)c1` [(MII), 4-(3-(4-Cyano-3-(trifluoromethyl)phenyl)-5,5-dimethyl-4-oxo-2-thioxoimidazolidin-1-yl)-2-fluorobenzamide], the inhibition at 10 µM at Angiotensin AT1 (h) is 0%; on dopamine transporter (h), 23%; at hERG, 7%; in [1] it was -18%; on Bradykinin B2 (h), -12%; on Neurokinin NK2 (h), -3%. The inhibition at 10 µM at PDE4D (h) is -9%; at Cannabinoid CB1 (h), 11%; on Somatostatin sst5 (h), 16%. Further, the “% Inhibition of Control Values @ 10 μM” value is −1% in the data set on PDE5 (h) (ns) and −10% with ATPase (Na^+/K^+). Also, the “% Inhibition of Control Specific Binding @ 10 μM” value with I2 is recorded as 22%; in the data set on σ (ns), 39%; in the data set on KATP channel, 24%; in the data set on Adrenergic α2 (ns) it was −9%.

With `CC1(C)C(=O)N(c2ccc(C#N)c(C(F)(F)F)c2)C(=O)N1c1ccc(C(N)=O)c(F)c1` [(MIII), 4-(3-(4-cyano-3-(trifluoromethyl)phenyl)-5,5-dimethyl-2,4-dioxoimidazolidin-1-yl)-2-fluorobenzamide], the inhibition at 10 µM on Angiotensin AT1 (h) was 6%; at dopamine transporter (h) it was 13%; at hERG, 8%; in data set [1], -18%; at Bradykinin B2 (h), -3%; on Neurokinin NK2 (h), 0%. For the same molecule, the figures for the inhibition at 10 µM on PDE4D (h), at Cannabinoid CB1 (h) and at Somatostatin sst5 (h) were -11%, 6% and 2%, respectively. The “% Inhibition of Control Values @ 10 μM” value came to 8% in the data set on PDE5 (h) (ns) and 3% in the data set on ATPase (Na^+/K^+). The “% Inhibition of Control Specific Binding @ 10 μM” value is listed as 20% with I2, 34% with σ (ns), 7% in the data set on KATP channel and −7% in the data set on Adrenergic α2 (ns).

As for `CNC(=O)c1ccc(N2C(=O)N(c3ccc(C#N)c(C(F)(F)F)c3)C(=O)C2(C)C)cc1F` [(MIV), 4-(3-(4-cyano-3-(trifluoromethyl)phenyl)-5,5-dimethyl-2,4-dioxoimidazolidin-1-yl)-2-fluoro-N-methylbenzamide], the inhibition at 10 µM at Angiotensin AT1 (h) was 0%; on dopamine transporter (h), 7%; at hERG, 10%; in data set [1] it was -12%; on Bradykinin B2 (h), 0%; at Neurokinin NK2 (h), 2%. Moreover, the inhibition at 10 µM at PDE4D (h) was -41%; at Cannabinoid CB1 (h), 4%; at Somatostatin sst5 (h), -7%. Moreover, the results for the “% Inhibition of Control Values @ 10 μM” value in the data set with PDE5 (h) (ns) and in the data set with ATPase (Na^+/K^+) were 2% and −13%, respectively. Besides, the “% Inhibition of Control Specific Binding @ 10 μM” value was 8% with I2, 50% in the data set with σ (ns), 7% in the data set with KATP channel and −7% with Adrenergic α2 (ns).

(Values after US8524755B2 (priority 2009, dated 2013).)
